# Test results published in patent US12077503B2, “Substituted cyclic amides and their use as herbicides” (FMC CORPORATION, priority 2015, dated 2024).
# Legend:
# Format in all cases: in vivo
# [1] = test system: barnyardgrass (Echinochloa crus-galli); assay: Test C preemergence; settings: for Plant response rating, Barnyardgrass: scale 0 to 100, 0 no effect, 100 complete control
# How it was run: (§1)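 Greenhouse test: seeds in a loam and sand blend treated preemergence, or seedlings at the 1- to 4-leaf stage (2 to 18 cm) in a peat, vermiculite and limestone mix treated postemergence, with test chemicals in a surfactant-containing non-phytotoxic solvent. Scored by eye at 13 to 15 d relative to controls, 0 (no effect) to 100 (complete control).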
# [2] = test system: morningglory (Ipomoea coccinea); assay: Test C preemergence; settings: for Plant response rating, Morningglory: scale 0 to 100, 0 no effect, 100 complete control
# How it was run: as §1
# [3] = test system: nutsedge, yellow (yellow nutsedge, Cyperus esculentus); assay: Test C preemergence; settings: for Plant response rating, Nutsedge, Yellow: scale 0 to 100, 0 no effect, 100 complete control
# How it was run: as §1
# [4] = test system: oilseed rape (Brassica napus); assay: Test C preemergence; settings: for Plant response rating, Oilseed Rape: scale 0 to 100, 0 no effect, 100 complete control
# How it was run: as §1
# [5] = test system: ryegrass, Italian (Italian ryegrass, Lolium multiflorum); assay: Test C preemergence; settings: for Plant response rating, Ryegrass, Italian: scale 0 to 100, 0 no effect, 100 complete control
# How it was run: as §1
# soybean (Glycine max) = assay: Test C preemergence; settings: for Plant response rating, Soybean: scale 0 to 100, 0 no effect, 100 complete control
# How it was run: as §1
# [6] = test system: velvetleaf (Abutilon theophrasti); assay: Test C preemergence; settings: for Plant response rating, Velvetleaf: scale 0 to 100, 0 no effect, 100 complete control
# How it was run: as §1
# [7] = test system: waterhemp (common waterhemp, Amaranthus rudis); assay: Test C preemergence; settings: for Plant response rating, Waterhemp: scale 0 to 100, 0 no effect, 100 complete control
# How it was run: as §1
# [8] = test system: Panicum, fall (fall Panicum, Panicum dichotomiflorum); assay: Test E preemergence; settings: scale 0 to 100
# Description: (§2) Seeds of plant species selected from corn (Zea mays), soybean (Glycine max), velvetleaf (Abutilon theophrasti), lambsquarters (Chenopodium album), poinsettia, wild (wild poinsettia, Euphorbia heterophylla), pigweed, palmer (palmer pigweed, Amaranthus palmeri), waterhemp (common waterhemp, Amaranthus rudis), surinam grass (Brachiaria decumbens), crabgrass, large (large crabgrass, Digitaria sangumnalis), crabgrass, Brazil (Brazilian crabgrass, Digitaria horizontalis), Panicum, fall (fall Panicum, Panicum dichotomiflorum), foxtail, giant (giant foxtail, Setaria faberii), foxtail, green (green foxtail, Setaria viridis), goosegrass (Eleusine indica), johnsongrass (Sorghum halepense), ragweed (common ragweed, Ambrosia elatior), barnyardgrass (Echinochloa crus-galli), sandbur (southern sandbur, Cenchrus echinatus), arrowleaf Sida (Sida rhombifolia), ryegrass, Italian (Italian ryegrass, Lolium multiflorum), dayflower, VA (Virginia dayflower, Commelina virginica), field bindweed (Convolvulus arvensis), morningglory (Ipomoea coccinea), nightshade (eastern black nightshade, Solanum ptycanthum), Kochia (Kochia scoparia), nutsedge, yellow (yellow nutsedge, Cyperus esculentus), horseweed (Conyza canadensis), and beggarticks (hairy beggarticks, Bidens pilosa), were planted into a silt loam soil and treated preemergence with test chemicals formulated in a non-phytotoxic solvent mixture which included a surfactant.
# (§3) At the same time, plants selected from these crop and weed species were planted in pots containing Sunshine Redi-Earth planting medium comprising spaghnum peat moss, vermiculite, starter nutrients and dolomitic limestone and treated with postemergence applications of a test chemical formulated in the same manner. Plants ranged in height from 2 to 18 cm (1- to 4-leaf stage) for postemergence treatments. Treated plants and controls were maintained in a greenhouse for 14 to 21 d, after which time all species were compared to controls and visually evaluated. Plant response ratings, summarized in Table E, are based on a scale of 0 to 100 where 0 is no effect and 100 is complete control. A dash (-) response means no test result.
# [9] = test system: crabgrass, Brazil (Brazilian crabgrass, Digitaria horizontalis); assay: Test E preemergence; settings: scale 0 to 100
# Description: as §2, §3
# [10] = test system: crabgrass, large (large crabgrass, Digitaria sangumnalis); assay: Test E preemergence; settings: scale 0 to 100
# Description: as §2, §3
# [11] = test system: dayflower, VA (Virginia dayflower, Commelina virginica); assay: Test E preemergence; settings: scale 0 to 100
# Description: as §2, §3
# [12] = test system: johnsongrass (Sorghum halepense); assay: Test E preemergence; settings: scale 0 to 100
# Description: as §2, §3
# [13] = test system: nutsedge, yellow (yellow nutsedge, Cyperus esculentus); assay: Test E preemergence; settings: scale 0 to 100
# Description: as §2, §3
# [14] = test system: sandbur (southern sandbur, Cenchrus echinatus); assay: Test E preemergence; settings: scale 0 to 100
# Description: as §2, §3
# [15] = 31 g ai/ha, 0 is no effect, 100 is complete control
smiles,measurement,setting,value
"CN1C[C@H](c2ccc(F)c(F)c2)[C@@H](C(=O)Nc2ccccc2F)C1=O [Compound 596, (3S,4S)-4-(3,4-difluorophenyl)-N-(2-fluorophenyl)-1-methyl-2-oxo-3-pyrrolidinecarboxamide]","Plant response rating (scale of 0 to 100), Barnyardgrass",[1]; [15],90
same,"Plant response rating, Barnyardgrass",[1]; 62 g ai/ha,95
same,"Plant response rating, Barnyardgrass",[1]; 125 g ai/ha,95
same,"Plant response rating, Barnyardgrass",[1]; 250 g ai/ha,95
same,"Plant response rating (scale of 0 to 100), Morningglory",[2]; [15],0
same,"Plant response rating, Morningglory",[2]; 62 g ai/ha,0
same,"Plant response rating, Morningglory",[2]; 125 g ai/ha,10
same,"Plant response rating, Morningglory",[2]; 250 g ai/ha,20
same,"Plant response rating (scale of 0 to 100), Nutsedge, Yellow",[3]; [15],0
same,"Plant response rating, Nutsedge, Yellow",[3]; 62 g ai/ha,0
same,"Plant response rating, Nutsedge, Yellow",[3]; 125 g ai/ha,0
same,"Plant response rating, Nutsedge, Yellow",[3]; 250 g ai/ha,0
same,"Plant response rating (scale of 0 to 100), Oilseed Rape",[4]; [15],0
same,"Plant response rating, Oilseed Rape",[4]; 62 g ai/ha,0
same,"Plant response rating, Oilseed Rape",[4]; 125 g ai/ha,30
same,"Plant response rating, Oilseed Rape",[4]; 250 g ai/ha,90
same,"Plant response rating (scale of 0 to 100), Ryegrass, Italian",[5]; [15],0
same,"Plant response rating, Ryegrass, Italian",[5]; 62 g ai/ha,0
same,"Plant response rating, Ryegrass, Italian",[5]; 125 g ai/ha,30
same,"Plant response rating, Ryegrass, Italian",[5]; 250 g ai/ha,45
same,"Plant response rating (scale of 0 to 100), Soybean",soybean (Glycine max); [15],0
same,"Plant response rating, Soybean",soybean (Glycine max); 62 g ai/ha,0
same,"Plant response rating, Soybean",soybean (Glycine max); 125 g ai/ha,0
same,"Plant response rating, Soybean",soybean (Glycine max); 250 g ai/ha,100
same,"Plant response rating (scale of 0 to 100), Velvetleaf",[6]; [15],10
same,"Plant response rating, Velvetleaf",[6]; 62 g ai/ha,20
same,"Plant response rating, Velvetleaf",[6]; 125 g ai/ha,30
same,"Plant response rating, Velvetleaf",[6]; 250 g ai/ha,55
same,"Plant response rating (scale of 0 to 100), Waterhemp",[7]; [15],0
same,"Plant response rating, Waterhemp",[7]; 62 g ai/ha,0
same,"Plant response rating, Waterhemp",[7]; 125 g ai/ha,25
same,"Plant response rating, Waterhemp",[7]; 250 g ai/ha,65
same,"Plant response rating: Panicum, Fall",[8]; 31 g ai/ha,0
same,"Plant response rating: Panicum, Fall",[8]; 62 g ai/ha,0
same,"Plant response rating: Panicum, Fall",[8]; 125 g ai/ha,0
same,"Plant response rating: Panicum, Fall",[8]; 250 g ai/ha,90
same,"Plant response rating: Crabgrass, Brazil",[9]; 31 g ai/ha,100
same,"Plant response rating: Crabgrass, Brazil",[9]; 62 g ai/ha,95
same,"Plant response rating: Crabgrass, Brazil",[9]; 125 g ai/ha,100
same,"Plant response rating: Crabgrass, Brazil",[9]; 250 g ai/ha,100
same,"Plant response rating: Crabgrass, Large",[10]; 31 g ai/ha,95
same,"Plant response rating: Crabgrass, Large",[10]; 62 g ai/ha,95
same,"Plant response rating: Crabgrass, Large",[10]; 125 g ai/ha,98
same,"Plant response rating: Crabgrass, Large",[10]; 250 g ai/ha,98
same,"Plant response rating: Dayflower, VA",[11]; 31 g ai/ha,0
same,"Plant response rating: Dayflower, VA",[11]; 62 g ai/ha,40
same,"Plant response rating: Dayflower, VA",[11]; 125 g ai/ha,40
same,"Plant response rating: Dayflower, VA",[11]; 250 g ai/ha,35
same,Plant response rating: Johnsongrass,[12]; 31 g ai/ha,0
same,Plant response rating: Johnsongrass,[12]; 62 g ai/ha,0
same,Plant response rating: Johnsongrass,[12]; 125 g ai/ha,0
same,Plant response rating: Johnsongrass,[12]; 250 g ai/ha,35
same,"Plant response rating: Nutsedge, Yellow",[13]; 31 g ai/ha,0
same,"Plant response rating: Nutsedge, Yellow",[13]; 62 g ai/ha,0
same,"Plant response rating: Nutsedge, Yellow",[13]; 125 g ai/ha,0
same,"Plant response rating: Nutsedge, Yellow",[13]; 250 g ai/ha,0
same,Plant response rating: Sandbur,[14]; 31 g ai/ha,85
same,Plant response rating: Sandbur,[14]; 62 g ai/ha,90
same,Plant response rating: Sandbur,[14]; 125 g ai/ha,90
same,Plant response rating: Sandbur,[14]; 250 g ai/ha,95
